{"source": "patent US6710090B2", "about": "“Inhibitory or blocking agents of molecular generating and/or inducing functions” (priority 1994, dated 2004)", "assay": "Comparison of 4,4-dimethyl-2-cyclohexen-1-one with Yoshixol on all parameters", "text": "In addition, higher dosage was needed to be obtained qualitatively an identical effect to the above-mentioned effect of Yoshixol. Then, the concentration of 4,4-dimethyl-2-cyclohexen-1-one was required about 30-100 times dosage of Yoshixol on the biological samples, and about 10-50 times dosage of Yoshixol on lower molecular substance and macromolecular substance of non-living samples.", "data": [{"smiles": "CC1(C)C=CC(=O)CC1", "note": "[4,4-dimethyl-2-cyclohexen-1-one]", "values": [{"measurement": "control, inhibit and/or block function generated by multi-dimensional structure", "setting": "all parameters demonstrated by Yoshixol", "result": "similarly to Yoshixol"}, {"measurement": "concentration required for an effect identical to Yoshixol", "setting": "on the biological samples", "result": "30-100 times dosage of Yoshixol"}]}]}
